Measurements taken from PMC11771213, “Molecular Docking Studies and In Vitro Activity of Pancreatic Lipase Inhibitors from Yak Milk Cheese” (International Journal of Molecular Sciences, 2025).
No end group written: not given here.

Legend:
[1] = target: T1, porcine pancreatic lipase (PL) (Sus scrofa, UniProt P00591); test: In vitro PL inhibition assay (p-nitrophenylbutyrate substrate); format: biochemical; details: triplicate; for IC50: porcine PL 1 mg/mL in 100 mM Tris HCl, pre-incubation 37 °C 30 min, 5 mM p-nitrophenylbutyrate, absorbance 450 nm, from fitted inhibition curve; for PL inhibition rate: range over concentrations of 0.2–1.0 mg/mL, 37 °C, 30 min pre-incubation
T1 construct: purchased Jiangsu Jingmei Bio technology (Yancheng, China)
T1 sequence (P00591 1-450): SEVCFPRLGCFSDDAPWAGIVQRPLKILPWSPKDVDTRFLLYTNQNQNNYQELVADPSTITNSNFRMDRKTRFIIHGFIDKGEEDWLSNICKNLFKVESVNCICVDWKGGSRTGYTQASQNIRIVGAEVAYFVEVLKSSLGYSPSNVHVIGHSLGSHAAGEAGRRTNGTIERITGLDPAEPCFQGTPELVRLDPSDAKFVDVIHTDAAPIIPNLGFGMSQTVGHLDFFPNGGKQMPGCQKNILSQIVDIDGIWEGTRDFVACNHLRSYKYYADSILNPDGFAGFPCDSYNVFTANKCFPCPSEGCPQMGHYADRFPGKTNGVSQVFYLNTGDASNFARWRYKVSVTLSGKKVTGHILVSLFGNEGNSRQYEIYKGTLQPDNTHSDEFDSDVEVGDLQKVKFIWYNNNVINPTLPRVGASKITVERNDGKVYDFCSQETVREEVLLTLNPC
Description: (§1) This experiment, based on the method of Glisan et al. and with slight modifications to the experimental method, determined the effects of peptides RK7 and KQ7 on porcine pancreatic lipase (PL). Firstly, dissolve p-nitrophenylbutyrate (5 mM) in a sodium acetate solution (5 mM, containing 1% Triton X-100). Dissolve porcine pancreatic lipase (PL) (1 mg/mL) in 100 mM Tris HCl buffer. Incubate with different concentrations of porcine pancreatic lipase (PL) and peptides in 96-well plates (37 °C) for 30 min. Then, mix with 5 mM p-nitrophenylbutyrate solution to initiate the enzyme reaction. The labeled pig pancreatic lipase antibody binds to form an antibody–antigen enzyme-labeled antibody complex. The substrate is converted to blue by enzyme catalysis and ultimately to yellow by acid action. The intensity of color is positively correlated with the presence of porcine pancreatic lipase (PL) in the sample. The enzyme-linked immunosorbent assay (ELISA) was used to measure the absorbance (OD value) at a wavelength of 450 nm, and the activity concentration of porcine pancreatic lipase (PL) in the sample was calculated using a standard curve.(1) PL inhibition rate/%=1−A−B/C−D × 100 where A is the absorbance value of the sample; B is the absorbance value of the sample blank; C is the absorbance value of the control group; and D is the absorbance value of the control blank group.
All measured data in the experiment were determined independently and measured in triplicate. All data were processed using SPSS Statistics 26.0. Data plots were generated using Origin 8.5 and GraphPad Prism 8.0.2.

[2] = target: T1, porcine pancreatic lipase (PL); test: PL inhibitory activity after simulated gastrointestinal digestion (pepsin, then trypsin); format: biochemical; details: pepsin pH 2, then trypsin pH 7.5, enzyme–substrate 1:50 w/w, 37 °C
Description: as §1, with “group. […]” for “group.”

IC50 [1] [µM] | PL inhibition rate [1] | PL inhibition rate at 120 min of simulated gastrointestinal digestion ([2]; 120 min time point) [%] | PL inhibition rate after simulated gastrointestinal digestion (range over digestion) ([2]; 120-minute digestion, sampled every 30 min) | Compound
886 | 29.27–67.09% | – | – | CC(C)c1c(C(=O)Nc2ccccc2)c(-c2ccccc2)c(-c2ccc(F)cc2)n1CC[C@@H](O)C[C@@H](O)CC(=O)O [atorvastatin, reference compound]
760 | – | 61.31 | – | KVLPVPQ [KQ7, Lys-Val-Leu-Pro-Val-Pro-Gln]
788 | 19.74–62.32% | – | 44.34–62.35% | RPKHPIK [RK7, Arg-Pro-Lys-His-Pro-Ile-Lys]
